Earlier results as cited in patent publication EP0163237A2, “Di- and tri-peptidal renin inhibitors” (Merck & Co., Inc., priority 1984, dated 1985).
Where a SMILES comes first, the peptide text is derived from it. [ ]: non-standard residue; d: D form. The star is where a group is joined. Sta = CC(C)C[C@H](N)[C@@H](O)CC(=O)O; Isovaleryl = CC(C)CC(=O)*

System: hog renin
Conditions: after the injection of hog renin into nephrectomized rats

Compound: CC(C)CC(=O)N[C@H](C(=O)N[C@H](C(=O)N[C@@H](CC(C)C)[C@@H](O)CC(=O)N[C@@H](C)C(=O)N[C@@H](CC(C)C)[C@@H](O)CC(=O)O)C(C)C)C(C)C [pepstatin] (Isovaleryl-VV[Sta]A[Sta]-OH)
- blood pressure in vivo: reduce blood pressure
